Legend:
Phosphodiesterase 4 [1] = biological target: T1, Phosphodiesterase 4 (Homo sapiens, UniProt P27815+Q08499+Q07343+Q08493); assay: Inhibition of PDE4 in human SHSY-5Y cells assessed as suppression of cAMP hydrolysis by HTRF assay in presence of dye d2 labelled cAMP; assay type: cell-based; details: sh-sy5y
[2] = biological target: 3',5'-cyclic-AMP phosphodiesterase 4B (Homo sapiens, UniProt Q07343); assay: Inhibition of human recombinant PDE4B1 expressed in insect Sf9 cells by fluorescence capillary-electrophoresis assay
[3] = biological target: cGMP-inhibited 3',5'-cyclic phosphodiesterase 3A (Homo sapiens, UniProt Q14432); assay: Inhibition of human recombinant PDE3 by fluorescence capillary-electrophoresis assay
Phosphodiesterase 4 [4] = biological target: T1, Phosphodiesterase 4; assay: Inhibition of PDE4 in human SHSY-5Y cells assessed as suppression of cAMP hydrolysis at 10 uM by HTRF assay in presence of dye d2 labelled cAMP; assay type: cell-based; details: SH-SY5Y

Chain of 3',5'-cyclic-AMP phosphodiesterase 4B (Q07343 whole entry): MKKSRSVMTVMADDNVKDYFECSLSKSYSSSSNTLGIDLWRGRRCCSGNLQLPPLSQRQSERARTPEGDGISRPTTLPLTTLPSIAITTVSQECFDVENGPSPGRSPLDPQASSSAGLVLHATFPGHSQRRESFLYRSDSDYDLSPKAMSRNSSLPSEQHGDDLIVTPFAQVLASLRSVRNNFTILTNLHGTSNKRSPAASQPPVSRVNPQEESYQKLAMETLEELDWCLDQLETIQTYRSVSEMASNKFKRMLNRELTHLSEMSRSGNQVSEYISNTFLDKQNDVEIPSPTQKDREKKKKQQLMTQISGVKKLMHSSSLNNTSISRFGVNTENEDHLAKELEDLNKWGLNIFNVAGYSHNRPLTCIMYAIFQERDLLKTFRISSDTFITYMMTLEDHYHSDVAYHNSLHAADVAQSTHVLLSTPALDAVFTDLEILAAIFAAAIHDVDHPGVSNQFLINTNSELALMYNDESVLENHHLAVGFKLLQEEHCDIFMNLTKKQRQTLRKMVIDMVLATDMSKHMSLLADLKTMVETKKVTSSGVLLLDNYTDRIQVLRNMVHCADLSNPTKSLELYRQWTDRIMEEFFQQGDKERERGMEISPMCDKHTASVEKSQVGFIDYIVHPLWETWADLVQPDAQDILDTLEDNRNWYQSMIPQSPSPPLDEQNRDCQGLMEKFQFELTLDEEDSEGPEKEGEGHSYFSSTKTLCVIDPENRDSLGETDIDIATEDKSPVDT
Chain of cGMP-inhibited 3',5'-cyclic phosphodiesterase 3A (Q14432 whole entry): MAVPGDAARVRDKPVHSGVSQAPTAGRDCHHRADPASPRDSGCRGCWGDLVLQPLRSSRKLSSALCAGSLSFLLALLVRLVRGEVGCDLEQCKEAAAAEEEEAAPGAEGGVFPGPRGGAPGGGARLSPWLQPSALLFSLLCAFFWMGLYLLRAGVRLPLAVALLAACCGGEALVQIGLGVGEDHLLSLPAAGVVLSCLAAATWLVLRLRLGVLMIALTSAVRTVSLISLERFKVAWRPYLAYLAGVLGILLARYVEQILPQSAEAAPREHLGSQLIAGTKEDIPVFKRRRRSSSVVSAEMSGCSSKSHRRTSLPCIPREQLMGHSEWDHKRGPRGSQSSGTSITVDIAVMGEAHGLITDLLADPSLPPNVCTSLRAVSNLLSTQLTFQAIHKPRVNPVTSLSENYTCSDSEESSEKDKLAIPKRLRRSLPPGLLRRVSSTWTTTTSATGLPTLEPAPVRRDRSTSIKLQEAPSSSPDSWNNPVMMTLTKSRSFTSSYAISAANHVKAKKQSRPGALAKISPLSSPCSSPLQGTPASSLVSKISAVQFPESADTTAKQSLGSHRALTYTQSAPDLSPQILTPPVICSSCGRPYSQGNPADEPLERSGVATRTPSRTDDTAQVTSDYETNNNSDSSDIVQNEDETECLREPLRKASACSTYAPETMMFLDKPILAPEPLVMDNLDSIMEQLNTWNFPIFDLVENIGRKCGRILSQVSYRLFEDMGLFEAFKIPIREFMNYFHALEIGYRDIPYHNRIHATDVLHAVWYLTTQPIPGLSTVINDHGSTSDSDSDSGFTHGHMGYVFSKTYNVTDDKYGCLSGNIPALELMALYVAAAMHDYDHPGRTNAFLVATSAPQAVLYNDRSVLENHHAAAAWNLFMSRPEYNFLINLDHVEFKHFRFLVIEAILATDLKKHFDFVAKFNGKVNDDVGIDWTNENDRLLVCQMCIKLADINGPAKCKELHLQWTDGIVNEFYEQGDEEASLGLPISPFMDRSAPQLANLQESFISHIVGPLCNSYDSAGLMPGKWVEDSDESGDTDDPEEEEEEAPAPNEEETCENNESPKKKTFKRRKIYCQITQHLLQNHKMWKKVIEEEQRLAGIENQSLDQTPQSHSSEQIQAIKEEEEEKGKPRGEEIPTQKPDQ

Row | SMILES | IC50 (Phosphodiesterase 4 [1]) [nM] | IC50 [2] [nM] | IC50 [3] [nM] | inhibition (Phosphodiesterase 4 [4]) [%]
1 | CCc1cnn2c(Nc3cccc(OC)c3)c(C(N)=O)cnc12 | 5400 | 38 | – | –
2 | COc1cccc(Nc2c(C(N)=O)cnc3c(C)c(S(=O)(=O)c4cccc(C(=O)N(C)C)c4)nn23)c1 | 629 | 0.7 | – | –
3 | COc1cccc(Nc2c(C(N)=O)cnc3c(C)c(S(=O)(=O)c4ccccc4)nn23)c1 | 243 | 4 | – | –
4 | COc1cccc(Nc2c(C(N)=O)cnc3c(C)c(S(C)(=O)=O)nn23)c1 | 1820 | 26 | – | –
5 | CSc1nn2c(Nc3cc(Cl)cc(Cl)c3)c3c(nc2c1C)CCNC3=O | 480 | 0.2 | – | –
6 | CNC(=O)c1cnc2c(C)cnn2c1Nc1cccc(OC)c1 | > 10000 | > 10000 | – | –
7 | COc1cccc(Nc2c3c(nc4c(C)c(S(C)(=O)=O)nn24)CCNC3=O)c1 | 8 | 0.1 | – | –
8 | Cc1c(S(C)(=O)=O)nn2c(Nc3cc(Cl)cc(Cl)c3)c3c(nc12)CCNC3=O | 5 | 0.03 | – | –
9 | COc1cccc(Nc2c(C(N)=O)cnc3c(C(C)C)c(S(C)(=O)=O)nn23)c1 | 270 | 5 | – | –

Further lines, results first:

Row | IC50 (Phosphodiesterase 4 [1]) [nM] | IC50 [2] [nM] | IC50 [3] [nM] | inhibition (Phosphodiesterase 4 [4]) [%] | SMILES
10 | > 10000 | 16 | – | – | Cc1cnn2c(Nc3cc(Cl)cc(Cl)c3)c(C(N)=O)cnc12
11 | > 10000 | 165 | > 10000 | < 50 | COc1cccc(Nc2c(C(N)=O)cnc3c(C)cnn23)c1
12 | > 10000 | 1950 | – | – | Cc1cnn2c(Nc3ccccc3)c(C(N)=O)cnc12
13 | 1500 | 7 | – | – | Cc1c(S(C)(=O)=O)nn2c(Nc3cc(Cl)cc(Cl)c3)c(C(N)=O)cnc12
14 | 130 | 0.2 | – | – | Cc1c(S(=O)(=O)c2cccc(C(=O)N(C)C)c2)nn2c(Nc3cc(Cl)cc(Cl)c3)c(C(N)=O)cnc12
15 | 5600 | 7 | – | – | Cc1c(S(=O)(=O)c2ccccc2)nn2c(Nc3cc(Cl)cc(Cl)c3)c(C(N)=O)cnc12
16 | 507 | 6 | – | – | CC(C)c1c(S(C)(=O)=O)nn2c(Nc3cc(Cl)cc(Cl)c3)c(C(N)=O)cnc12
